# Values of other authors, collected in patent US6361800B1 (Cooper Concepts, Inc., priority 2000, dated 2002).
# Read-outs that look alike come from different tables or passages of the source.
# Conditions: 100 I.U. taken for two years or longer
substance,measurement,setting,value
vitamin E,reduced deaths of coronary artery disease,"39,910 male health professionals",37%
same,reduced deaths of coronary artery disease,"87,245 nurses",40%
